pIC50: −log10 of the molar value.
Columns and labels:
RPE65 isomerohydrolase = molecular target: T1, RPE65 isomerohydrolase (Rattus norvegicus, UniProt O70276); assay: Isomerohydrolase activity assay with rat RPE microsomes (Example 2); assay type: biochemical
T1 construct: 50 μg microsomal proteins from the rat RPE were added into 200 μl of reaction buffer; from tissue; host or cells: rat eyecup/RPE microsomes
T1 sequence (O70276 1-533): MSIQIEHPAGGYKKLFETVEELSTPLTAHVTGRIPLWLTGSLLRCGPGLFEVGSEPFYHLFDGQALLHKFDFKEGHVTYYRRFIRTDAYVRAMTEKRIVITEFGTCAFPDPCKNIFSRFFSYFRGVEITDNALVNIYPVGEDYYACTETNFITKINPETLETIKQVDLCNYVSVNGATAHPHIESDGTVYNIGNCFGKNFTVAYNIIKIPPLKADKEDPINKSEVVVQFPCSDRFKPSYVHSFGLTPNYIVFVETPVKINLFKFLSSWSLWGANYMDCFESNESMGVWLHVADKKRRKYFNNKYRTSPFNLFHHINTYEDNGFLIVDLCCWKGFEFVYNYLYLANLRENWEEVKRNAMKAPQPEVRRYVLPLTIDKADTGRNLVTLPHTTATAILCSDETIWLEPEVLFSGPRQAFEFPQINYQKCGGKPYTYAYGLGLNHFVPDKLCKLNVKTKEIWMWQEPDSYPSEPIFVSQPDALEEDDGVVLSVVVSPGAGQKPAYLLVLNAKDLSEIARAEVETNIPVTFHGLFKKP
Experimental: Isomerohydrolase activity assay and PBN inhibition—Rats were sacrificed, and eyes were enucleated and dissected to remove the anterior part including lens, vitreous, and retina. The remaining eyecups containing RPE were sonicated 3 times for 20 seconds in a cold 0.32 M sucrose/0.1 M sodium phosphate buffer (pH 7.4). The homogenate was centrifuged (20 minutes, 20,000 g) to sediment sclera, unbroken cells, nuclei and mitochondria. The obtained supernatant was recentrifuged (1 hour, 100,000 g), and the microsomal pellet was resuspended in 10 mM 1,3-bis[tris(hydroxymethyl)-methylamino]propane (BTP), (pH 8.0) and 100 mM NaCl, and stored at −80° C. All-trans-[11,12-^3H]-retinol (1 mCi/ml, 45.5 Ci/mmol, American Radiolabeled Chemical, Inc., St. Louis, Mo.) in N,N-dimethyl formamide was used as the substrate for the isomerohydrolase assay. […] The upper layer was collected, and the generated retinoids were analyzed by normal phase HPLC as described (38). […] The isomerohydrolase activity was calculated from the area of the 11-cis-retinol peak using Radiomatic 610TR software (Perkin Elmer, Boston, Mass.) with synthetic 11-cis-[^3H]-retinol as a standard. […] The inhibition constant for PBN was calculated from the following equation: […] where [I]=concentration of PBN, Vm^i=maximal velocity in the presence of Vm=maximal velocity in the absence of PBN. […]

cone photoreceptors = assay: Cone function by single-flash photopic and flicker-flash ERG in rats; assay type: in vivo, rat; conditions: 50 mg/kg, 60 minutes after administration, rod-suppressing background
Experimental: To evaluate cone function under conditions in which rod recovery is suppressed, rats were injected with PBN (50 mg/kg) or saline 60 minutes prior to recording single-flash photopic and flicker-flash ERG recordings. Rats were placed under a steady adapting field of 1.7 log cd·s/m^2 for at least 7 minutes. A single flash of 3.3 log cd·s/m^2 was presented under the same adapting field to elicit a maximal cone response. Cone responses were further evaluated by presenting 1.2 log cd·s/m^2 stimuli flickering at frequencies of 3-, 10-, 20-, and 30-Hz under the same adapting field.
To assess the effect of PBN administration on cone function under conditions when rod recovery was suppressed, single- and flicker-flash ERG recordings were performed under a steady, rod-suppressing background illumination 60 minutes after PBN administration.

Structure (SMILES): CC(C)(C)/[N+]([O-])=C/c1ccccc1 [Compound 1, α-phenyl-N-tert-butyl nitrone]
- inhibition of 11-cis-retinol generation (RPE65 isomerohydrolase; 1 mM PBN): almost complete inhibition
- pIC50 (RPE65 isomerohydrolase; rat RPE microsomes, 0.2 μM all-trans-[3H]-retinol, 1 h 37° C., read-out: apparent IC50 of isomerohydrolase activity): 4.00
- effect on cone function (cone photoreceptors): not affected

Reference: patent US20130225694A1, “COMPOSITIONS AND METHODS OF INHIBITING RETINAL DEGENERATION” (Oklahoma Medical Research Foundation, priority 2012, published 2013)
